Test results: patent publication US8952024B2, “Herbicidal pyrimidone derivatives” (E I du Pont de Nemours and Company, priority 2009, dated 2015)

How the values were obtained:
Assay in all cases: Test D pre-/postemergence plant response
Format in all cases: in vivo
[1] = system: dallisgrass (Paspalum dilatatum); conditions: Postemergence
Method in brief: (§1)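 Seeds were sown in a loam–sand blend and sprayed preemergence with compound in a non-phytotoxic solvent mixture containing surfactant; plants at 2–18 cm (1- to 4-leaf stage) received the same formulation postemergence. After 14 to 21 days in a greenhouse, injury was rated visually against untreated controls (0 = no effect, 100 = complete control).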

[2] = system: barnyardgrass (Echinochloa crus-galli); conditions: Postemergence, scale 0 to 100 (0 no effect, 100 complete control)
Method in brief: as §1

[3] = system: bermudagrass (Cynodon dactylon); conditions: Postemergence, scale 0 to 100 (0 no effect, 100 complete control)
Method in brief: as §1

[4] = system: Russian thistle (Salsola kali); conditions: Postemergence
Method in brief: as §1

[5] = system: goosegrass (Eleusine indica); conditions: Postemergence
Method in brief: as §1

[6] = system: ragweed (common ragweed, Ambrosia elatior); conditions: Postemergence
Method in brief: as §1

[7] = system: purslane (common purslane, Portulaca oleracea); conditions: Postemergence
Method in brief: as §1

[8] = system: bluegrass (annual bluegrass, Poa annua); conditions: Postemergence, scale 0 to 100 (0 no effect, 100 complete control)
Method in brief: as §1

[9] = system: signalgrass (broadleaf signalgrass, Brachiaria platyphylla); conditions: Postemergence
Method in brief: as §1

[10] = system: sandbur (southern sandbur, Cenchrus echinatus); conditions: Postemergence
Method in brief: as §1

[11] = system: chickweed (common chickweed, Stellaria media); conditions: Postemergence
Method in brief: as §1

[12] = system: large crabgrass (Digitaria sanguinalis); conditions: Postemergence
Method in brief: as §1

[13] = system: quackgrass (Elytrigia repens); conditions: Postemergence
Method in brief: as §1

[14] = system: dayflower (Virginia (VA) dayflower, Commelina virginica); conditions: Postemergence
Method in brief: as §1

[15] = system: itchgrass (Rottboellia cochinchinensis); conditions: Postemergence
Method in brief: as §1

[16] = system: black mustard (Brassica nigra); conditions: Postemergence, scale 0 to 100 (0 no effect, 100 complete control)
Method in brief: as §1

[17] = system: mallow (common mallow, Malva sylvestris); conditions: Postemergence
Method in brief: as §1

[18] = system: morningglory (pitted morningglory, Ipomoea lacunosa); conditions: Postemergence
Method in brief: as §1

[19] = 62 g ai/ha, scale 0 to 100 (0 no effect, 100 complete control)
[20] = 125 g ai/ha, scale 0 to 100 (0 no effect, 100 complete control)
[21] = 250 g ai/ha, scale 0 to 100 (0 no effect, 100 complete control)

COCCn1c(-c2cccc(F)c2)ncc(C(=O)C2=C(O)C3CCC(C3)C2=O)c1=O (stereo not drawn) [Compound 235]
Plant response rating, Dallisgrass ([1]; 31 g ai/ha, scale 0 to 100): 70 | Plant response rating, Dallisgrass [1, 19]: 75 | Plant response rating, Dallisgrass [1, 20]: 80 | Plant response rating, Dallisgrass [1, 21]: 80 | Plant response rating, Barnyardgrass ([2]; 31 g ai/ha): 80 | Plant response rating, Barnyardgrass ([2]; 62 g ai/ha): 80 | Plant response rating, Barnyardgrass ([2]; 125 g ai/ha): 95 | Plant response rating, Barnyardgrass ([2]; 250 g ai/ha): 95 | Plant response rating, Bermudagrass ([3]; 31 g ai/ha): 80 | Plant response rating, Bermudagrass ([3]; 62 g ai/ha): 95 | Plant response rating, Bermudagrass ([3]; 125 g ai/ha): 95 | Plant response rating, Bermudagrass ([3]; 250 g ai/ha): 95 | Plant response rating, Russian Thistle ([4]; 31 g ai/ha, scale 0 to 100): 30 | Plant response rating, Russian Thistle [4, 19]: 30 | Plant response rating, Russian Thistle [4, 20]: 50 | Plant response rating, Russian Thistle [4, 21]: 60 | Plant response rating, Goosegrass ([5]; 31 g ai/ha, scale 0 to 100): 75 | Plant response rating, Goosegrass [5, 19]: 75 | Plant response rating, Goosegrass [5, 20]: 75 | Plant response rating, Goosegrass [5, 21]: 75 | Plant response rating, Ragweed ([6]; 31 g ai/ha, scale 0 to 100): 70 | Plant response rating, Ragweed [6, 19]: 70 | Plant response rating, Ragweed [6, 20]: 80 | Plant response rating, Ragweed [6, 21]: 80 | Plant response rating, Purslane ([7]; 31 g ai/ha, scale 0 to 100): 60 | Plant response rating, Purslane [7, 19]: 60 | Plant response rating, Purslane [7, 20]: 60 | Plant response rating, Purslane [7, 21]: 70 | Plant response rating, Bluegrass ([8]; 31 g ai/ha): 5 | Plant response rating, Bluegrass ([8]; 62 g ai/ha): 20 | Plant response rating, Bluegrass ([8]; 125 g ai/ha): 35 | Plant response rating, Bluegrass ([8]; 250 g ai/ha): 50 | Plant response rating, Signalgrass ([9]; 31 g ai/ha, scale 0 to 100): 65 | Plant response rating, Signalgrass [9, 19]: 90 | Plant response rating, Signalgrass [9, 20]: 90 | Plant response rating, Signalgrass [9, 21]: 95 | Plant response rating, Sandbur ([10]; 31 g ai/ha, scale 0 to 100): 75 | Plant response rating, Sandbur [10, 19]: 75 | Plant response rating, Sandbur [10, 20]: 75 | Plant response rating, Sandbur [10, 21]: 75 | Plant response rating, Chickweed ([11]; 31 g ai/ha, scale 0 to 100): 5 | Plant response rating, Chickweed [11, 19]: 30 | Plant response rating, Chickweed [11, 20]: 60 | Plant response rating, Chickweed [11, 21]: 70 | Plant response rating, Crabgrass, Large ([12]; 31 g ai/ha, scale 0 to 100): 70 | Plant response rating, Crabgrass, Large [12, 19]: 75 | Plant response rating, Crabgrass, Large [12, 20]: 75 | Plant response rating, Crabgrass, Large [12, 21]: 80 | Plant response rating, Quackgrass ([13]; 31 g ai/ha, scale 0 to 100): 5 | Plant response rating, Quackgrass [13, 19]: 30 | Plant response rating, Quackgrass [13, 20]: 40 | Plant response rating, Quackgrass [13, 21]: 70 | Plant response rating, Dayflower, VA ([14]; 31 g ai/ha, scale 0 to 100): 60 | Plant response rating, Dayflower, VA [14, 19]: 70 | Plant response rating, Dayflower, VA [14, 20]: 75 | Plant response rating, Dayflower, VA [14, 21]: 75 | Plant response rating, Itchgrass ([15]; 31 g ai/ha, scale 0 to 100): 70 | Plant response rating, Itchgrass [15, 19]: 75 | Plant response rating, Itchgrass [15, 20]: 80 | Plant response rating, Itchgrass [15, 21]: 90 | Plant response rating, Black Mustard ([16]; 31 g ai/ha): 80 | Plant response rating, Black Mustard ([16]; 62 g ai/ha): 80 | Plant response rating, Black Mustard ([16]; 125 g ai/ha): 98 | Plant response rating, Black Mustard ([16]; 250 g ai/ha): 98 | Plant response rating, Mallow ([17]; 31 g ai/ha, scale 0 to 100): 10 | Plant response rating, Mallow [17, 19]: 50 | Plant response rating, Mallow [17, 20]: 70 | Plant response rating, Mallow [17, 21]: 70 | Plant response rating, Morningglory ([18]; 31 g ai/ha, scale 0 to 100): 75 | Plant response rating, Morningglory [18, 19]: 75 | Plant response rating, Morningglory [18, 20]: 95 | Plant response rating, Morningglory [18, 21]: 95

COCCCn1c(-c2cccc(F)c2)ncc(C(=O)C2=C(O)C3CCC(C3)C2=O)c1=O (stereo not drawn) [Compound 238]
Plant response rating, Dallisgrass ([1]; 31 g ai/ha, scale 0 to 100): 10 | Plant response rating, Dallisgrass [1, 19]: 65 | Plant response rating, Dallisgrass [1, 20]: 70 | Plant response rating, Dallisgrass [1, 21]: 75 | Plant response rating, Barnyardgrass ([2]; 31 g ai/ha): 75 | Plant response rating, Barnyardgrass ([2]; 62 g ai/ha): 80 | Plant response rating, Barnyardgrass ([2]; 125 g ai/ha): 85 | Plant response rating, Barnyardgrass ([2]; 250 g ai/ha): 95 | Plant response rating, Bermudagrass ([3]; 31 g ai/ha): 80 | Plant response rating, Bermudagrass ([3]; 62 g ai/ha): 90 | Plant response rating, Bermudagrass ([3]; 125 g ai/ha): 95 | Plant response rating, Bermudagrass ([3]; 250 g ai/ha): 95 | Plant response rating, Russian Thistle ([4]; 31 g ai/ha, scale 0 to 100): 30 | Plant response rating, Russian Thistle [4, 19]: 40 | Plant response rating, Russian Thistle [4, 20]: 50 | Plant response rating, Russian Thistle [4, 21]: 50 | Plant response rating, Goosegrass ([5]; 31 g ai/ha, scale 0 to 100): 50 | Plant response rating, Goosegrass [5, 19]: 70 | Plant response rating, Goosegrass [5, 20]: 75 | Plant response rating, Goosegrass [5, 21]: 75 | Plant response rating, Ragweed ([6]; 31 g ai/ha, scale 0 to 100): 70 | Plant response rating, Ragweed [6, 19]: 75 | Plant response rating, Ragweed [6, 20]: 75 | Plant response rating, Ragweed [6, 21]: 75 | Plant response rating, Purslane ([7]; 31 g ai/ha, scale 0 to 100): 60 | Plant response rating, Purslane [7, 19]: 60 | Plant response rating, Purslane [7, 20]: 60 | Plant response rating, Purslane [7, 21]: 60 | Plant response rating, Bluegrass ([8]; 31 g ai/ha): 0 | Plant response rating, Bluegrass ([8]; 62 g ai/ha): 5 | Plant response rating, Bluegrass ([8]; 125 g ai/ha): 20 | Plant response rating, Bluegrass ([8]; 250 g ai/ha): 40 | Plant response rating, Signalgrass ([9]; 31 g ai/ha, scale 0 to 100): 20 | Plant response rating, Signalgrass [9, 19]: 35 | Plant response rating, Signalgrass [9, 20]: 60 | Plant response rating, Signalgrass [9, 21]: 65 | Plant response rating, Sandbur ([10]; 31 g ai/ha, scale 0 to 100): 50 | Plant response rating, Sandbur [10, 19]: 75 | Plant response rating, Sandbur [10, 20]: 75 | Plant response rating, Sandbur [10, 21]: 85 | Plant response rating, Chickweed ([11]; 31 g ai/ha, scale 0 to 100): 30 | Plant response rating, Chickweed [11, 19]: 35 | Plant response rating, Chickweed [11, 20]: 40 | Plant response rating, Chickweed [11, 21]: 50 | Plant response rating, Crabgrass, Large ([12]; 31 g ai/ha, scale 0 to 100): 50 | Plant response rating, Crabgrass, Large [12, 19]: 70 | Plant response rating, Crabgrass, Large [12, 20]: 75 | Plant response rating, Crabgrass, Large [12, 21]: 80 | Plant response rating, Quackgrass ([13]; 31 g ai/ha, scale 0 to 100): 5 | Plant response rating, Quackgrass [13, 19]: 5 | Plant response rating, Quackgrass [13, 20]: 30 | Plant response rating, Quackgrass [13, 21]: 40 | Plant response rating, Dayflower, VA ([14]; 31 g ai/ha, scale 0 to 100): 35 | Plant response rating, Dayflower, VA [14, 19]: 65 | Plant response rating, Dayflower, VA [14, 20]: 70 | Plant response rating, Dayflower, VA [14, 21]: 75 | Plant response rating, Itchgrass ([15]; 31 g ai/ha, scale 0 to 100): 70 | Plant response rating, Itchgrass [15, 19]: 70 | Plant response rating, Itchgrass [15, 20]: 75 | Plant response rating, Itchgrass [15, 21]: 80 | Plant response rating, Black Mustard ([16]; 31 g ai/ha): 80 | Plant response rating, Black Mustard ([16]; 62 g ai/ha): 95 | Plant response rating, Black Mustard ([16]; 125 g ai/ha): 98 | Plant response rating, Black Mustard ([16]; 250 g ai/ha): 98 | Plant response rating, Mallow ([17]; 31 g ai/ha, scale 0 to 100): 25 | Plant response rating, Mallow [17, 19]: 35 | Plant response rating, Mallow [17, 20]: 50 | Plant response rating, Mallow [17, 21]: 60 | Plant response rating, Morningglory ([18]; 31 g ai/ha, scale 0 to 100): 70 | Plant response rating, Morningglory [18, 19]: 80 | Plant response rating, Morningglory [18, 20]: 80 | Plant response rating, Morningglory [18, 21]: 90
